Measured values reported in article PMC6017028 (Molecules : A Journal of Synthetic Chemistry and Natural …, 2018).

Experiments:
human URAT1 = target: T1, human URAT1 (Homo sapiens, UniProt Q96S37); details: for URAT1 inhibitory activity (in words): human URAT1, HEK293-URAT1 cells
T1 sequence (Q96S37 1-553): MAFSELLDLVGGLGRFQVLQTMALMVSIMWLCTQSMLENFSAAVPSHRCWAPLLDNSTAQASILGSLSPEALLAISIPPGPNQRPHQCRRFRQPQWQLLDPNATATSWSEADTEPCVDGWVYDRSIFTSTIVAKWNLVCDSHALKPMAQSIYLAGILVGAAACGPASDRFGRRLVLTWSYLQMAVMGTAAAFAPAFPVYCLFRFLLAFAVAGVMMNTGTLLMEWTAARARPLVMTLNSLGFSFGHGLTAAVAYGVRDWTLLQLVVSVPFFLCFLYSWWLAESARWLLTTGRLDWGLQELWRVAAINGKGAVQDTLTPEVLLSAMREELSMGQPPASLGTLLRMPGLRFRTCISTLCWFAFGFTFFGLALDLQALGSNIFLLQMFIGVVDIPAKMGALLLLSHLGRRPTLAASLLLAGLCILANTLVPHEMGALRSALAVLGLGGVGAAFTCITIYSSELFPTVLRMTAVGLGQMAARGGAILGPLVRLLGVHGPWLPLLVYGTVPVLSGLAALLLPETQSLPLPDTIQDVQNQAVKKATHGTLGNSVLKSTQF
Description: After incubation for 48 h, when the HEK293-URAT1 cells and mock cells were grown to confluence, the cells were treated with 0.25% trypsin for 1–2 min. Thereafter, the digested cells were diluted to a density of 1.5 × 10^5/mL and seeded onto the 24-well cell culture plates at 1 mL/well for about 48 h. […] The HEK293-URAT1 cells were then washed rapidly three times with ice-cold HBSS (Cl^− free) and lysed with 0.1 M aqueous NaOH solution. After that, 500-μL aliquots of cell lysates were transferred to scintillation vials and mixed with scintillation solution. The radioactivity in the cells was measured by a liquid scintillation counter (PerkinElmer, Waltham, MA, USA).

[1] = design: method as in PMID 17531180; details: weak organic acid; cited from earlier work
[2] = ratio of IC50 values against human URAT1

| SMILES | IC50 (human URAT1) [µM] | melting point | further results |
| --- | --- | --- | --- |
| O=C([O-])CSc1nnc(Br)n1Cc1cccnc1.[Na+] [1f, Sodium 2-((5-bromo-4-(3-pyridinylmethyl)-4H-1,2,4-triazol-3-yl)thio)acetate] | 14.2 ± 4.71 | 109 to 111 °C |  |
| CC(C)(Sc1ncc(Br)n1Cc1cccs1)C(=O)[O-].[Na+] [1w, Sodium 2-((5-bromo-1-((2-thiophenyl)methyl)-1H-imidazol-2-yl)thio)-2-methylpropionate] | 17.4 ± 3.98 | 75 °C (dec.) | URAT1 inhibitory activity (in words) (human URAT1): weak |
| O=c1[nH]c(=O)c2[nH]c(=O)[nH]c2[nH]1 [Uric acid] |  |  | pKa [1]: 5.75 |
| O=C([O-])CSc1nnc(Br)n1Cc1cccc2c1sc1ccccc12.[Na+] [1hi, Sodium 2-((5-bromo-4-((dibenzo[b,d]thiophen-4-yl)methyl)-4H-1,2,4-triazol-3-yl)thio)acetate] | 18.5 ± 5.41 | 74 °C (dec.) |  |
| CCCn1c(Br)nnc1SCC(=O)O [1b, Sodium 2-((5-bromo-4-n-propyl-4H-1,2,4-triazol-3-yl)thio)acetate] | 4.83 ± 1.02 |  |  |
| O=C([O-])CSc1nnc(Br)n1Cc1ccc(-c2ccccc2)s1.[Na+] [1hg, Sodium 2-((5-bromo-4-((5-phenyl-2-thiophenyl)methyl)-4H-1,2,4-triazol-3-yl)thio)acetate] | 31.7 ± 9.34 | 212 °C (dec.) |  |
| CCc1ccc(Cn2c(Br)nnc2SCC(=O)[O-])s1.[Na+] [1hc, Sodium 2-((5-bromo-4-((5-ethyl-2-thiophenyl)methyl)-4H-1,2,4-triazol-3-yl)thio)acetate] | 7.98 ± 2.14 | 178 to 180 °C |  |
| O=C([O-])CSc1nnc(Br)n1Cc1ccsc1.[Na+] [1hf, Sodium 2-((5-bromo-4-((3-thiophenyl)methyl)-4H-1,2,4-triazol-3-yl)thio)acetate] | > 50 | 124 to 126 °C | URAT1 inhibitory activity (in words) (human URAT1): complete loss of URAT1 inhibitory activity |
| O=C([O-])CSc1nnc(Br)n1Cc1ccc(Cl)s1.[Na+] [1ha, Sodium 2-((5-bromo-4-((5-chloro-2-thiophenyl)methyl)-4H-1,2,4-triazol-3-yl)thio)acetate] | 11.2 ± 2.36 | 97 °C (dec.) |  |
| O=C([O-])CSc1nnc(Br)n1CC12CC3CC(CC(C3)C1)C2.[Na+] [1d, Sodium 2-((4-(1-adamantylmethyl)-5-bromo-4H-1,2,4-triazol-3-yl)thio)acetate] | 5.11 ± 0.79 | 194 °C (dec.) |  |
| CCn1c(Br)nnc1SCC(=O)O [1a, Sodium 2-((5-bromo-4-ethyl-4H-1,2,4-triazol-3-yl)thio)acetate] | 18.4 ± 3.36 |  |  |
| Cc1cc(Cn2c(Br)nnc2SCC(=O)[O-])sc1Br.[Na+] [1he, Sodium 2-((5-bromo-4-((5-bromo-4-methyl-2-thiophenyl)methyl)-4H-1,2,4-triazol-3-yl)thio)acetate] | 6.1 ± 1.17 | 87 °C (dec.) |  |
| Cc1ccc(Cn2c(Br)nnc2SCC(=O)[O-])s1.[Na+] [1hb, Sodium 2-((5-bromo-4-((5-methyl-2-thiophenyl)methyl)-4H-1,2,4-triazol-3-yl)thio)acetate] | > 50 | 157 °C (dec.) |  |
| N#Cc1ccc(Cn2c(Br)cnc2SCC(=O)[O-])c2ccccc12.[Na+] [1q, Sodium 2-((5-bromo-1-((4-cyano-1-naphthyl)methyl)-1H-imidazol-2-yl)thio)acetate] | 5.55 ± 0.98 | 161 °C (dec.) |  |
| N#Cc1ccc(Cc2cnccc2SCC(=O)[O-])c2ccccc12.[Na+] [1t, Sodium 2-((3-((4-cyano-1-naphthyl)methyl)pyridin-4-yl)thio)acetate] | 8.83 ± 1.02 | 268 °C (dec.) |  |

The next lines start with results.

| IC50 (human URAT1) [µM] | melting point | SMILES | further results |
| --- | --- | --- | --- |
| 1.39 ± 0.42 |  | CC(C)(Sc1ccncc1Cc1ccc(C#N)c2ccccc12)C(=O)O [1u, Sodium 2-((3-((4-cyano-1-naphthyl)methyl)pyridin-4-yl)thio)-2-methylpropionate] |  |
| 1.36 ± 0.24 | 122 °C (dec.) | O=C([O-])CSc1nnc(Br)n1Cc1ccc2ncccc2c1.[Na+] [1n, Sodium 2-((5-bromo-4-(quinoline-6-methyl)-4H-1,2,4-triazol-3-yl)thio)acetate] |  |
| 3.04 ± 0.84 | 158 °C (dec.) | Cc1ccsc1Cn1c(Br)nnc1SCC(=O)[O-].[Na+] [1hd, Sodium 2-((5-bromo-4-((3-methyl-2-thiophenyl)methyl)-4H-1,2,4-triazol-3-yl)thio)acetate] |  |
| 1.96 ± 0.34 |  | CC(C)(Sc1nnc(Br)n1Cc1ccc(C#N)c2ccccc12)C(=O)O [1o] |  |
| 0.48 ± 0.11 | 285 °C (dec.) | N#Cc1ccc(Cn2c(Br)cnc2SC2(C(=O)[O-])CCC2)c2ccccc12.[Na+] [1s, Sodium 1-((5-bromo-1-((4-cyano-1-naphthyl)methyl)-1H-imidazol-2-yl)thio)cyclobutanecarboxylate] |  |
| 0.12 ± 0.03 | 99 °C (dec.) | O=C([O-])CSc1nnc(Br)n1Cc1sc2ccccc2c1Br.[Na+] [1hh, Sodium 2-((5-bromo-4-((3-bromobenzo[b]thiophen-2-yl)methyl)-4H-1,2,4-triazol-3-yl)thio)acetate] |  |
| 2.61 ± 0.4 | 92 °C (dec.) | O=C([O-])CSc1nnc(Br)n1Cc1ccc2occc2c1.[Na+] [1k, Sodium 2-((4-(benzo[b]furan-5-methyl)-5-bromo-4H-1,2,4-triazol-3-yl)thio)acetate] |  |
| 1.15 ± 0.2 | 296 °C (dec.) | N#Cc1ccc(Cc2cnccc2SC2(C(=O)[O-])CCC2)c2ccccc12.[Na+] [1v, Sodium 1-((3-((4-cyano-1-naphthyl)methyl)pyridin-4-yl)thio)cyclobutanecarboxylate] |  |
| 1.15 ± 0.25 | 195 °C (dec.) | O=C([O-])CSc1nnc(Br)n1C(c1ccccc1)c1ccccc1.[Na+] [1j, Sodium 2-((5-bromo-4-(diphenylmethyl)-4H-1,2,4-triazol-3-yl)thio)acetate] |  |
| 0.21 ± 0.07 | 243 °C (dec.) | CC(C)(Sc1ncc(Br)n1Cc1ccc(C#N)c2ccccc12)C(=O)[O-].[Na+] [1r, Sodium 2-((5-bromo-1-((4-cyano-1-naphthyl)methyl)-1H-imidazol-2-yl)thio)-2-methylpropionate] |  |
| 3.8 ± 0.78 |  | N#Cc1ccc(Cn2c(Br)nnc2SCC(=O)O)c2ccccc12 [1l, Sodium 2-((5-bromo-4-((4-cyano-1-naphthyl)methyl)-4H-1,2,4-triazol-3-yl)thio)acetate] |  |
| 4.54 ± 0.69 | 108 to 111 °C | O=C([O-])CSc1nnc(Br)n1Cc1ccco1.[Na+] [1g, Sodium 2-((5-bromo-4-(2-furanylmethyl)-4H-1,2,4-triazol-3-yl)thio)acetate] |  |
| 0.035 ± 0.01 |  | O=C([O-])CSc1nnc(Br)n1Cc1cccs1.[Na+] [1h, Sodium 2-((5-bromo-4-(2-thiophenylmethyl)-4H-1,2,4-triazol-3-yl)thio)acetate] | fold more potent than benzbromarone (human URAT1; [2]): 8 fold; fold more potent than parent lesinurad (human URAT1; [2]): 200 fold |
| 4.6 ± 0.88 | 135 °C (dec.) | O=C([O-])CSc1nnc(Br)n1CC1CCCCC1.[Na+] [1c, Sodium 2-((5-bromo-4-(cyclohexylmethyl)-4H-1,2,4-triazol-3-yl)thio)acetate] |  |
| 0.32 ± 0.07 | 210 °C (dec.) | O=C([O-])C1(Sc2ncc(Br)n2Cc2cccs2)CCC1.[Na+] [1x, Sodium 1-((5-bromo-1-((2-thiophenyl)methyl)-1H-imidazol-2-yl)thio)cyclobutanecarboxylate] | URAT1 inhibitory activity (in words) (human URAT1): highly potent |
| 2.98 ± 0.6 | 119 to 121 °C | O=C([O-])CSc1nnc(Br)n1Cc1ccccc1.[Na+] [1e, Sodium 2-((4-benzyl-5-bromo-4H-1,2,4-triazol-3-yl)thio)acetate] |  |
| 1.16 ± 0.34 | 199 to 201 °C | O=C([O-])CSc1nnc(Br)n1Cc1ccc(-c2ccccc2)cc1.[Na+] [1i, Sodium 2-((4-(biphenyl-4-methyl)-5-bromo-4H-1,2,4-triazol-3-yl)thio)acetate] |  |
| 0.59 ± 0.17 | 136 °C (dec.) | N#Cc1ccc(Cn2c(Br)nnc2SC2(C(=O)[O-])CCC2)c2ccccc12.[Na+] [1p, Sodium 1-((5-bromo-4-((4-cyano-1-naphthyl)methyl)-4H-1,2,4-triazol-3-yl)thio)cyclobutanecarboxylate] |  |
| 4.66 ± 1.04 | 118 °C (dec.) | O=C([O-])CSc1nnc(Br)n1Cc1ccc2ccccc2c1.[Na+] [1m, Sodium 2-((5-bromo-4-(2-naphthylmethyl)-4H-1,2,4-triazol-3-yl)thio)acetate] |  |
